Assay results as given in patent US20060111848A1, “Identification and use of cofactor independent phosphoglycerate mutase as a drug target for pathogenic organisms and treatment of the same” (New England Biolabs, Inc., priority 2003, published 2006).

What was measured:
Wolbachia iPGM = assay: PGM activity, spectrophotometric NADH-coupled assay, recombinant Wolbachia iPGM; format: biochemical; conditions: recombinant enzyme
Procedure: (§1) The purified CeiPGM, WoliPGM and BmiPGM proteins described in Example 4 were assayed for PGM activity and found to be active. Activity was measured in forward and reverse directions using a standard spectrophotometric assay (White and Fothergill-Gilmore, European J. Biochem. 207:709-714 1992)) as outlined in FIG. 9. In the forward reaction (glycolytic), the conversion of 3-PG to 2-PG is measured, whereas in the reverse direction (gluconeogenic), the conversion of 2-PG to 3-PG is assayed. In both cases, PGM activity was determined indirectly by measuring the consumption of NADH, which is monitored at 340 nm. The amount of NADH being oxidized to NAD corresponds to the amount of enzyme product (2-PG in the forward direction or 3-PG in the reverse direction) yielded in the PGM reaction. Reactions were performed at 30° C. for 5 minutes with data collected at 10-second intervals using a Beckman DU 640 spectrophotometer. In the forward reaction, iPGM was added to 1 ml assay buffer (30 mM Tris-HCl pH 7.0, 5 mM MgSO4, 20 mM KCl, 0.15 mM NADH) containing 1 mM ADP, 10 mM 3-PGA (Sigma P8877, Sigma-Aldrich, St. Louis, Mo.), 2.5 U each of enolase (Sigma E6126, EC 4.2.1.11, Sigma-Aldrich, St. Louis, Mo.), pyruvate kinase (Sigma P7768, EC 2.7.1.40, Sigma-Aldrich, St. Louis, Mo.) and lactate dehydrogenase (Sigma L2518; EC 1.1.1.27, Sigma-Aldrich, St. Louis, Mo.). […]

C. elegans iPGM = target: T1, C. elegans iPGM (Caenorhabditis elegans, UniProt G5EFZ1); assay: PGM activity, spectrophotometric NADH-coupled assay, recombinant C. elegans iPGM; format: biochemical; conditions: recombinant enzyme
T1 construct: The full-length iPGMs from C. elegans, B. malayi and Wolbachia were overexpressed in E. coli; His tag (C); made in house; host or cells: E. coli ER2566
T1 sequence (G5EFZ1 1-521 isoform G5EFZ1-2): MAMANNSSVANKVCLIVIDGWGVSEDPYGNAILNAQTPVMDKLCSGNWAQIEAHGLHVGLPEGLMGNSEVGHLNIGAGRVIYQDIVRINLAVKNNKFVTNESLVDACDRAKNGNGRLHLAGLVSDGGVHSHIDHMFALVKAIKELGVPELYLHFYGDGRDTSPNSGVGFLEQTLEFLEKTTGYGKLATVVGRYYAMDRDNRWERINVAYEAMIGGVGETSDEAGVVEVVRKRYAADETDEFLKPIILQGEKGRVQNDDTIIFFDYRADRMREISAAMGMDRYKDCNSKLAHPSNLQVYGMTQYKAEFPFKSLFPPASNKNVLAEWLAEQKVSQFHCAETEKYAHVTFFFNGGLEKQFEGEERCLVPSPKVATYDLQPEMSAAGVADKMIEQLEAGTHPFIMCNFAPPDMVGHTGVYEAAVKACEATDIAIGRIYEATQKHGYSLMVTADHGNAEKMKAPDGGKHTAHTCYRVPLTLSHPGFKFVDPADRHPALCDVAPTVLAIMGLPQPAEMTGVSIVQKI
Procedure: as §1

dPGM = conditions: cited from earlier work
iPGM = conditions: cited from earlier work
B. malayi iPGM = target: T2, B. malayi iPGM (Brugia malayi, UniProt Q4VWF8); assay: PGM activity, spectrophotometric NADH-coupled assay, recombinant B. malayi iPGM; format: biochemical; conditions: recombinant enzyme
T2 construct: The full-length iPGMs from C. elegans, B. malayi and Wolbachia were overexpressed in E. coli; His tag (C); made in house; host or cells: E. coli ER2566
Procedure: as §1

T2 sequence (Q4VWF8 whole entry): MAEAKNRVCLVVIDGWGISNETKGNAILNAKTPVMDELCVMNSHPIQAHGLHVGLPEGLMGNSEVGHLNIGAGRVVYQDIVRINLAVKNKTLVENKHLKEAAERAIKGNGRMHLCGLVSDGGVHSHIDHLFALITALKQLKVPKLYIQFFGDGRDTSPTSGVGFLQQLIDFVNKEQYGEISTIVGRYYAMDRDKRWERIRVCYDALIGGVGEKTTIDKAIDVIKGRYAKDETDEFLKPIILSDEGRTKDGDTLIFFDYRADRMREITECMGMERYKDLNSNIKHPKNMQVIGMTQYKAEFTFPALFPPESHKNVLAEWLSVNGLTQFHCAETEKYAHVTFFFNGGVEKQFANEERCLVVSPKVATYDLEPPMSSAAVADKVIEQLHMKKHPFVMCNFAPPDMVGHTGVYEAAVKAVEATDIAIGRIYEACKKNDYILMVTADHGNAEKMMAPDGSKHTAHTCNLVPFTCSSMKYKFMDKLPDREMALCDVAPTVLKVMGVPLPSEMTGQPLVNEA

[O]=[V]([O-])([O-])[O-] [vanadate]
inhibition of PGM activity (Wolbachia iPGM): not inhibited | inhibition of PGM activity (C. elegans iPGM): not inhibited | effect on dPGM activity (dPGM): inhibited | effect on iPGM activity (iPGM): insensitive | inhibition of PGM activity (B. malayi iPGM): not inhibited
